Structures can show the parent of a compound that is named as a salt. Where two headings read alike, the source gives them in different places.
How the values were obtained:
[1] = target: T1, neuronal nicotinic acetylcholine receptors (Rattus norvegicus, UniProt P09483+P12390); test: [3H]-cytisine binding to neuronal nicotinic acetylcholine receptors, crude synaptic membranes from whole rat brain
T1 construct: crude synaptic membrane preparations from whole rat brain; from tissue; host or cells: whole rat brain, crude synaptic membranes
T1 sequence (P09483 31-630): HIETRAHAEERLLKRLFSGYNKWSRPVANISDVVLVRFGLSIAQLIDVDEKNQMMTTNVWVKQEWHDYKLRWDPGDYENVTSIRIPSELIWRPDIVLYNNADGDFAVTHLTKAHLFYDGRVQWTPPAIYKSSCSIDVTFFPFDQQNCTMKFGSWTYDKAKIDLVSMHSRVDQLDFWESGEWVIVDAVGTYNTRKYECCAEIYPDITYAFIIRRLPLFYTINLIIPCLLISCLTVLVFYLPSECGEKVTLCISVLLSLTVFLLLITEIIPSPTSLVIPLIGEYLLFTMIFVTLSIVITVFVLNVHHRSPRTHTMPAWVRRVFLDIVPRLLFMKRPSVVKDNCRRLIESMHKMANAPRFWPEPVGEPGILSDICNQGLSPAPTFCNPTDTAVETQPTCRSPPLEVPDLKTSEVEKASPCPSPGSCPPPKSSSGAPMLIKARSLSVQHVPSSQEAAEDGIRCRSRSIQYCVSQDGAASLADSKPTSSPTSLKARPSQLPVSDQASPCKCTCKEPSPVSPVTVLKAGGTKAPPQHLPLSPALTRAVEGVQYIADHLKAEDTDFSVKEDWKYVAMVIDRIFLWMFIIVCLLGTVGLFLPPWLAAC
T1 sequence (P12390 25-500): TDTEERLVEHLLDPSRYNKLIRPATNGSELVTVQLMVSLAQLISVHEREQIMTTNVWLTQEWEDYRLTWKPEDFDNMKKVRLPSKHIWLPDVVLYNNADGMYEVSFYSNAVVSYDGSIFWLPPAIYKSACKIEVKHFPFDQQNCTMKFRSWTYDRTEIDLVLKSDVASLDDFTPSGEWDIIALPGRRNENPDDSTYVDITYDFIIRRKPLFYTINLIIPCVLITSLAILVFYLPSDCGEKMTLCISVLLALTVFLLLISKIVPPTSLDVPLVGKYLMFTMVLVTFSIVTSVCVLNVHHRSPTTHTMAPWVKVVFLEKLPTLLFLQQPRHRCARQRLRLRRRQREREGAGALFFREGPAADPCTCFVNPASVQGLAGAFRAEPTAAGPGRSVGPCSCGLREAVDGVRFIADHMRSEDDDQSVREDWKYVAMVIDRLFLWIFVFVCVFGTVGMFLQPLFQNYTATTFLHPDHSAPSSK
Protocol: The In Vitro protocols for determination of nicotinic acetylcholine channel receptor binding potencies of ligands were determined as follows.
Washed membranes were stored at-80 °C prior to use. Frozen aliquots were slowly thawed and resuspended in 20 volumes of buffer (containing: 120 mM NaCl, 5 mM KCI, 2 mM MgCl2, 2 mM CaCl2 and 50 mM Tris-Cl, pH 7.4 @4 °C). After centrifuging at 20,000x g for 15 minutes, the pellets were resuspended in 30 volumes of buffer.
The test compounds were dissolved in water to make 10 mM stock solutions. Each solution was then diluted (1:100) with buffer (as above) and further taken through seven serial log dilutions to produce test solutions from 10^-5 to 10^-11 M.
Samples were incubated for 60 minutes at 4 °C, then rapidly filtered through Whatman GF/B filters presoaked in 0.5% polyethyleneimine using 3 x 4 mL of ice-cold buffer. The filters are counted in 4 mL of Ecolume® (ICN). Nonspecific binding was determined in the presence of 10 µM (-)-nicotine and values were expressed as a percentage of total binding. IC50 values were determined with the RS-1 (BBN) nonlinear least squares curve-fitting program and IC50 values were converted to Ki values using the Cheng and Prusoff correction (Ki=IC50/(1+[ligand]/Kd of ligand).

mice = test: Mouse hot plate paradigm (analgesic effect, latency until tenth jump); format: in vivo; details: ip, 0.5 h, minimally effective dose among doses tested, intraperitoneal, dosed 30 minutes prior to testing, hot plate 55 °C, cut-off 180 seconds, increase in tenth jump latency relative to control, read-out: (MED)
Protocol: An in vivo protocol was utilized to determine the effectiveness of nicotinic acetylcholine receptor ligands as analgesic agents in the mouse hot plate paradigm.
Separate groups of mice, (n=8/group) were utilized for each dose group. All drugs were administered by the intraperitoneal route of administration. Test drugs were dissolved in water to make a 6.2 mM stock solution. Animals were dosed with this solution (10 mL/kg body weight) for a 62 micromol/kg dose. Lower doses were administered similarly, following serial dilution of the stock solution in half-log increments. Animals were dosed 30 minutes prior to testing in the hot plate. The hotplate utilized was an automated analgesia monitor (Model #AHP16AN, Omnitech Electronics, Inc. of Columbus, Ohio). The temperature of the hot plate was maintained at 55 °C and a cut-off time of 180 seconds was utilized. Latency until the tenth jump was recorded as the dependent measure. An increase in the tenth jump latency relative to the control was considered an effect.

[2] = [3H]-CYT 1.25 nM, 60 minutes at 4 °C, whole rat brain membranes, Ki from IC50 by Cheng and Prusoff correction, read-out: Average Ki

SMILES: c1cncc(CN2C[C@H]3C[C@@H]2CN3)c1 [Example 20, (1R,4R)-2-(3-pyridinylmethyl)-2,5-diazabicyclo[2.2.1]heptane trihydrobromide]
- Ki [1]: 52 nM
- minimal effective dose (mice): 62 µmol/kg

SMILES: Oc1cncc(N2C[C@@H]3C[C@H]2CN3)c1 [Example 22, (1S,4S)-2[5-hydroxy-3-pyridinyl]-2,5-diazabicyclo[2.2.1]heptane 4-methylbenzenesulfonate]
- Ki [1]: 4.1 nM
- minimal effective dose (mice): 19 µmol/kg

SMILES: Cc1ccc(N2C[C@@H]3C[C@H]2CN3)cn1 [Example 23, (1S,4S)-2-(6-methyl-3-pyridinyl)-2,5-diazabicyclo[2.2.1]heptane 4-methylbenzenesulfonate]
- Ki [1]: 1.6 nM
- minimal effective dose (mice): 62 µmol/kg

SMILES: c1cncc(N2C[C@H]3C[C@@H]2CN3)c1 [Example 24, (1R,4R)-2-(3-pyridinyl)-2,5-diazabicyclo[2.2.1]heptane 4-methylbenzenesulfonate]
- Ki [1]: 0.012 nM
- minimal effective dose (mice): 6.2 µmol/kg

SMILES: c1cnnc(N2C[C@H]3C[C@@H]2CN3)c1 [Example 25, (1R,4R)-2-(3-pyridazinyl)-2,5-diazabicyclo[2,2,1]heptane 4-methylbenzenesulfonate]
- Ki [1]: 0.4 nM
- minimal effective dose (mice): 19 µmol/kg

SMILES: N#CCN1C[C@H]2C[C@@H]1CN2c1ccc(Cl)nc1 [Example 27, (1R,4R)-2-(6-chloro-3-pyridinyl)-5-cyanomethyl-2,5-diazabicyclo[2.2.1]heptane 4-methylbenzenesulfonate]
- Ki [1]: 0.05 nM
- minimal effective dose (mice): 1.9 µmol/kg

SMILES: Fc1ccc(N2C[C@@H]3C[C@H]2CN3)cn1 [Example 30, (1S,4S)-2-(6-fluoro-3-pyridinyl)-2,5-diazabicyclo[2.2.1]heptane bis(4-methylbenzenesulfonate)]
- Ki [1]: 0.17 nM
- minimal effective dose (mice): 1.9 µmol/kg

SMILES: Brc1cncc(N2C[C@@H]3C[C@H]2CN3)c1 [Example 31, (1S,4S)-2-(5-bromo-3-pyridinyl)-2,5-diazabicyclo[2.2.1]heptane 4-methylbenzenesulfonate]
- Ki [1]: 1.2 nM
- minimal effective dose (mice): 62 µmol/kg

SMILES: Fc1ccc(N2C[C@H]3C[C@@H]2CN3)cn1 [Example 33, (1R,4R)-2-(6-fluoro-3-pyridinyl)-2,5-diazabicyclo[2.2.1]heptane 4-methylbenzenesulfonate]
- Ki [1]: 0.03 nM
- minimal effective dose (mice): 0.19 µmol/kg

SMILES: Clc1ccc(N2CCC3CC2CN3)cn1 (centres unmarked) [Example 35, 2-(6-chloro-3-pyridinyl)-2,6-diazabicyclo[3.2.1]octane trihydrochloride]
- Ki [1, 2]: 1.5 nM
- minimal effective dose (mice): 19 µmol/kg

SMILES: Clc1ccc(N2CCC3CCC(C2)N3)cn1 (centres unmarked) [Example 36, 3-(6-chloro-3-pyridinyl)-3,9-diazabicyclo[4.2.1]nonane hydrochloride]
- Ki [1]: 0.06 nM
- minimal effective dose (mice): 1.9 µmol/kg

SMILES: CN1C2CCC1CN(c1cccnc1)CC2 (centres unmarked) [Example 37, 9-methyl-3-(3-pyridinyl)-3,9-diazabicyclo[4.2.1]nonane 4-methylbenzenesulfonate]
- Ki [1]: 0.55 nM
- minimal effective dose (mice): 6.2 µmol/kg

SMILES: NC(=O)c1cncc(N2C[C@@H]3C[C@H]2CN3)c1 [Example 38, (1S,4S)-2-(5-aminocarbonyl-3-pyridinyl)-2,5-diazabicyclo[2.2.1]heptane bis(4-methylbenzenesulfonate)]
- Ki [1]: 24 nM
- minimal effective dose (mice): 19 µmol/kg

SMILES: Oc1cncc(N2C[C@H]3C[C@@H]2CN3)c1 [Example 39, (1R,4R)-2-(5-hydroxy-3-pyridinyl)-2,5-diazabicyclo[2.2.1]heptane 4-methylbenzenesulfonate]
- Ki [1]: 0.04 nM
- minimal effective dose (mice): 62 µmol/kg

SMILES: Oc1cc(N2C[C@H]3C[C@@H]2CN3)cnc1Cl [Example 40, (1R,4R)-2-(6-chloro-5-hydroxy-3-pyridinyl)-2,5-diazabicyclo[2.2.1]heptane 4-methylbenzenesulfonate]
- Ki [1]: 0.17 nM
- minimal effective dose (mice): 19 µmol/kg

SMILES: c1cncc(N2CCC3CCC(C2)N3)c1 (centres unmarked) [Example 41, 3-(3-pyridinyl)-3,9-diazabicyclo[4.2,1]nonane bis(4-methylbenzenesulfonate)]
- Ki [1]: 0.03 nM
- minimal effective dose (mice): 6.2 µmol/kg

SMILES: N#Cc1cncc(N2C[C@H]3C[C@@H]2CN3)c1 [Example 44, (1R,4R)-2-(5-cyano-3-pyridinyl)-2,5-diazabicyclo[2,2,1]heptane 4-methylbenzenesulfonate]
- Ki [1]: 0.03 nM
- minimal effective dose (mice): 0.62 µmol/kg

SMILES: COc1ccc(N2C[C@H]3C[C@@H]2CN3)cn1 [Example 46, (1R,4R)-2-(6-methoxy-3-pyridinyl)-2,5-diazabicyclo[2.2.1]heptane 4-methylbenzenesulfonate]
- Ki [1]: 0.25 nM
- minimal effective dose (mice): 6.2 µmol/kg

SMILES: Cc1cc(N2C[C@H]3C[C@@H]2CN3)cnc1Cl [Example 47, (1R,4R)-2-(6-chloro-5-methyl-3-pyridinyl)-2,5-diazabicyclo[2.2.1]heptane 4-methylbenzenesulfonate]
- Ki [1]: 0.009 nM
- minimal effective dose (mice): 6.2 µmol/kg

SMILES: Clc1cc(N2C[C@H]3C[C@@H]2CN3)cnc1Cl [Example 48, (1R,4R)-2-(5,6-dichloro-3-pyridinyl)-2,5-diazabicyclo[2.2.1]heptane 4-methylbenzenesulfonate]
- Ki [1]: 0.01 nM
- minimal effective dose (mice): 6.2 µmol/kg

SMILES: c1cncc(N2CC3CNCC(C3)C2)c1 [Example 57, 3-(3-pyridinyl)-3,7-diazabicyclo[3.3.1]nonane bis(4-methylbenzenesulfonate)]
- Ki [1, 2]: 0.02 nM
- minimal effective dose (mice): 1.9 µmol/kg

SMILES: Clc1ccc(N2CC3CNCC(C3)C2)cn1 [Example 58, 3-(6-Chloro-3-pyridinyl)-3,7-diazabicyclo[3.3.1]nonane 4-methylbenzenesulfonate]
- Ki [1]: 0.02 nM
- minimal effective dose (mice): 0.62 µmol/kg

From patent publication EP1359152B1, “Diazabicyclic derivatives as nicotinic acetylcholine receptor ligands” (ABBOTT LABORATORIES, priority 1999, dated 2000)
